Results as given in PubChem BioAssay AID330 (DTP/NCI, 2004).
“And” between values parts separate entries of the source, which are not always exact repeats. Identical values can stand only once. Toxic doses and inconclusive results are not listed. Rule for the calls: active = survival T/C of 150% or more; inactive = T/C below 125% in these data.

System: P388 leukemia ip, CD2F1 mice, survival T/C
Assay: NCI In Vivo Anticancer Drug Screen. Data for tumor model P388 Leukemia (intraperitoneal) in CD2F1 (CDF1) mice
Details: endpoint: median survival time, higher = longer survival
How it was run: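 Mice carrying the transplanted tumor received test compound or vehicle. Survival was recorded in each group, and the value is the treated-group measurement divided by that of the vehicle-treated control group.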

[1] = dose: 25.0 mg/kg/injection, schedule: Q01DX009 (ip), vehicle: Klucel (hydroxypropylcellulose) (HPC)
[2] = dose: 50.0 mg/kg/injection, schedule: Q01DX009 (ip), vehicle: Klucel (hydroxypropylcellulose) (HPC)
[3] = dose: 100.0 mg/kg/injection, schedule: Q01DX009 (ip), vehicle: Klucel (hydroxypropylcellulose) (HPC)
[4] = dose: 200.0 mg/kg/injection, schedule: Q01DX009 (ip), vehicle: Klucel (hydroxypropylcellulose) (HPC)
[5] = dose: 60.0 mg/kg/injection, schedule: Q01DX005 (ip), vehicle: saline with Tween-80
[6] = dose: 120.0 mg/kg/injection, schedule: Q01DX005 (ip), vehicle: saline with Tween-80
[7] = dose: 50.0 mg/kg/injection, schedule: Q01DX009 (ip), vehicle: saline with Tween-80
[8] = dose: 50.0 mg/kg/injection, schedule: Q01DX005 (ip), vehicle: saline with Tween-80
[9] = dose: 100.0 mg/kg/injection, schedule: Q01DX005 (ip), vehicle: saline with Tween-80
[10] = dose: 12.5 mg/kg/injection, schedule: Q01DX009 (ip), vehicle: saline with Tween-80
[11] = dose: 100.0 mg/kg/injection, schedule: Q04DX002 (ip), vehicle: saline with Tween-80

Measured: T/C

C[C@]12CCC(=O)C(O)=C1CC[C@@H]1[C@@H]2CC[C@]2(C)C(=O)CC[C@@H]12
inactive: dose: 12.5 mg/kg/injection, schedule: Q01DX009 (ip), vehicle: Klucel (hydroxypropylcellulose) (HPC) 111 % of control and 96 % of control | [1] 100 % of control and 111 % of control | [2] 105 % of control and 106 % of control | [3] 92 % of control and 93 % of control | [4] 92 % of control and 96 % of control | dose: 400.0 mg/kg/injection, schedule: Q01DX009 (ip), vehicle: Klucel (hydroxypropylcellulose) (HPC) 111 % of control and 88 % of control

CCOc1cccc(C=N)c1O
inactive: [5] 111 % of control | [6] 105 % of control

CCN1C[C@]2(COC)[C@H](O)C[C@H](OC)[C@]34C1[C@H]([C@H](OC)[C@H]23)[C@]1(OC(C)=O)[C@H]2[C@@H](OC(=O)c3ccccc3)[C@](O)(C[C@H]24)[C@@H](OC)[C@@H]1O
inactive: dose: 0.01 mg/kg/injection, schedule: Q01DX009 (ip), vehicle: saline 113 % of control and 88 % of control

CCOC(=O)Oc1ccc(CC([NH-])C(=O)O)cc1.CCOC(=O)Oc1ccc(CC([NH-])C(=O)O)cc1.[Cu+2] (stereo unspecified)
inactive: dose: 6.25 mg/kg/injection, schedule: Q01DX009 (ip), vehicle: saline 100 % of control | dose: 12.5 mg/kg/injection, schedule: Q01DX009 (ip), vehicle: saline 100 % of control | dose: 25.0 mg/kg/injection, schedule: Q01DX009 (ip), vehicle: saline 100 % of control

CSC1=NC=C(C#N)C2=NC(c3c(F)cccc3Cl)NN12 (stereo unspecified)
inactive: [5] 89 % of control | [6] 89 % of control | dose: 240.0 mg/kg/injection, schedule: Q01DX005 (ip), vehicle: saline with Tween-80 90 % of control

CC(=O)C(=O)c1ccc(O)c(C)c1O
inactive: [7] 107 % of control | dose: 100.0 mg/kg/injection, schedule: Q01DX009 (ip), vehicle: saline with Tween-80 104 % of control | dose: 200.0 mg/kg/injection, schedule: Q01DX009 (ip), vehicle: saline with Tween-80 105 % of control

CC(C)(C)OC(=O)NC(CCCCN)C(=O)O (stereo unspecified)
inactive: dose: 50.0 mg/kg/injection, schedule: Q01DX005 (ip), vehicle: saline 103 % of control | dose: 100.0 mg/kg/injection, schedule: Q01DX005 (ip), vehicle: saline 100 % of control | dose: 200.0 mg/kg/injection, schedule: Q01DX005 (ip), vehicle: saline 100 % of control

O=C(/C=C/c1ccccc1)OCC1=C[C@@H](O)[C@@H]2C=CO[C@@H](OC3OC(CO)C(O)C(O)C3O)[C@H]12 (stereo partly specified)
inactive: dose: 12.5 mg/kg/injection, schedule: Q01DX005 (ip), vehicle: Klucel (hydroxypropylcellulose) (HPC) 100 % of control | dose: 25.0 mg/kg/injection, schedule: Q01DX005 (ip), vehicle: Klucel (hydroxypropylcellulose) (HPC) 93 % of control | dose: 50.0 mg/kg/injection, schedule: Q01DX005 (ip), vehicle: Klucel (hydroxypropylcellulose) (HPC) 112 % of control | dose: 100.0 mg/kg/injection, schedule: Q01DX005 (ip), vehicle: Klucel (hydroxypropylcellulose) (HPC) 118 % of control | dose: 200.0 mg/kg/injection, schedule: Q01DX005 (ip), vehicle: Klucel (hydroxypropylcellulose) (HPC) 115 % of control

CSCC1Cc2ccccc2N=C(c2ccccc2)O1 (stereo unspecified)
inactive: dose: 100.0 mg/kg/injection, schedule: Q01DX001 (ip), vehicle: saline with Tween-80 100 % of control | dose: 200.0 mg/kg/injection, schedule: Q01DX001 (ip), vehicle: saline with Tween-80 97 % of control | dose: 400.0 mg/kg/injection, schedule: Q01DX001 (ip), vehicle: saline with Tween-80 100 % of control

CN1CCC(O)(c2ccccc2)C(O)C1 (stereo unspecified)
inactive: [8] 95 % of control | [9] 93 % of control | dose: 200.0 mg/kg/injection, schedule: Q01DX005 (ip), vehicle: saline with Tween-80 90 % of control

O=C(/C=C/c1ccc(Cl)c(Cl)c1)c1ccc(Cl)cc1
inactive: [10] 100 % of control | dose: 25.0 mg/kg/injection, schedule: Q01DX009 (ip), vehicle: saline with Tween-80 100 % of control | [7] 100 % of control

CCC(=[Se])N(CC)CC
inactive: dose: 0.39 mg/kg/injection, schedule: Q01DX009 (ip), vehicle: Klucel (hydroxypropylcellulose) (HPC) 98 % of control | dose: 0.78 mg/kg/injection, schedule: Q01DX009 (ip), vehicle: Klucel (hydroxypropylcellulose) (HPC) 102 % of control | dose: 1.56 mg/kg/injection, schedule: Q01DX009 (ip), vehicle: Klucel (hydroxypropylcellulose) (HPC) 99 % of control | dose: 6.25 mg/kg/injection, schedule: Q01DX009 (ip), vehicle: Klucel (hydroxypropylcellulose) (HPC) 100 % of control

S=c1ncnc2c1ccc1[nH][nH]cc12
inactive: [11] 88 % of control | dose: 200.0 mg/kg/injection, schedule: Q04DX002 (ip), vehicle: saline with Tween-80 92 % of control | dose: 400.0 mg/kg/injection, schedule: Q04DX002 (ip), vehicle: saline with Tween-80 107 % of control

CCOc1c(N=Nc2ccccc2Cl)c(-c2ccccc2)nn1C(=S)S
inactive: [8] 105 % of control | [9] 99 % of control

O=c1c2ncccc2cc2n1CCc1c-2[nH]c2ccccc12
inactive: dose: 6.25 mg/kg/injection, schedule: Q01DX009 (ip), vehicle: saline with Tween-80 88 % of control | [10] 86 % of control

C/C=C\C(C)=C/C(C)C(=O)CC(O)CC1CC(=O)NC(=O)C1 (stereo unspecified)
inactive: dose: 1.56 mg/kg/injection, schedule: Q01DX009 (ip), vehicle: DMSO 91 % of control | dose: 3.12 mg/kg/injection, schedule: Q01DX009 (ip), vehicle: DMSO 98 % of control | dose: 6.25 mg/kg/injection, schedule: Q01DX009 (ip), vehicle: DMSO 93 % of control | dose: 12.5 mg/kg/injection, schedule: Q01DX009 (ip), vehicle: DMSO 100 % of control | dose: 25.0 mg/kg/injection, schedule: Q01DX009 (ip), vehicle: DMSO 107 % of control

O=C(c1ccccc1)c1ccccc1-c1nc2ccccc2c(=O)o1
inactive: [2] 100 % of control | [3] 95 % of control | [4] 109 % of control

Cc1cc2[nH]c(Cl)c(/C=N/Nc3ccccc3[N+](=O)[O-])c2cc1O
inactive: dose: 50.0 mg/kg/injection, schedule: Q01DX001 (ip), vehicle: Klucel (hydroxypropylcellulose) (HPC) 96 % of control | dose: 100.0 mg/kg/injection, schedule: Q01DX001 (ip), vehicle: Klucel (hydroxypropylcellulose) (HPC) 99 % of control | dose: 200.0 mg/kg/injection, schedule: Q01DX001 (ip), vehicle: Klucel (hydroxypropylcellulose) (HPC) 90 % of control and 96 % of control

CC(=O)Oc1ccc2ccc(=O)oc2c1OC(C)=O
inactive: [1] 102 % of control | [2] 101 % of control | [3] 109 % of control | [4] 118 % of control

C/C=C(\C)C(=O)OCC1(C)C(OC(=O)/C(C)=C/C)CCC2(C)C3C(=O)C=C(C)C2C31 (stereo unspecified)
inactive: dose: 25.0 mg/kg/injection, schedule: Q04DX002 (ip), vehicle: saline with Tween-80 110 % of control | dose: 50.0 mg/kg/injection, schedule: Q04DX002 (ip), vehicle: saline with Tween-80 94 % of control | [11] 97 % of control

O=C1C=C(CCC2=CC(=O)c3ccccc3C2=O)C(=O)c2ccccc21
inactive: [5] 100 % of control | [6] 94 % of control
